Laboratory results reported in patent US20180318287A1, “Imidazo[4,5-c]quinolin-2-one Compounds and Their Use in Treating Cancer” (ASTRAZENECA AB, priority 2015, published 2018).
Like-named read-outs stand apart in the source and are kept apart here.

How the values were obtained:
Type in all cases: cell-based
ATR kinase = target: T1, ATR kinase (Homo sapiens, UniProt Q13535); test: Assay b): ATR cellular potency (pChk1 Ser345 in HT29 cells after 4NQO)
T1 construct: endogenous in cells; host or cells: HT29 cells (ECACC #85061109)
Method in brief: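 HT29 cells were preincubated with compound for 1 h at 37 °C, 5% CO2, then stimulated with 4NQO for a further 1 h; wells without 4NQO served as the null control. Cells permeabilised with 0.1% Triton X-100. Chk1 Ser345 phosphorylation imaged on ArrayScan VTI at 10× objective.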

PI3K-α = PI3K-α (Homo sapiens, UniProt P42336); test: Assay c): PI3K cellular potency (phospho-Akt T308 ELISA in BT474 cells); conditions: for Assay c) PI3Ka Cell IC50: BT474 cells, phospho-Akt T308, 2 h, Table 3 comparative data; for IC50: BT474 cells, phospho-Akt T308, 2 h; Table 2; read-out: Assay c) PI3Kα Cell IC50
Text: This assay was used to measure PI3K-α inhibition in cells. PDK1 was identified as the upstream activation loop kinase of protein kinase B (Akt1), which is essential for the activation of PKB. Activation of the lipid kinase phosphoinositide 3 kinase (PI3K) is critical for the activation of PKB by PDK1.
Following ligand stimulation of receptor tyrosine kinases, PI3K is activated, which converts PIP2 to PIP3, which is bound by the PH domain of PDK1 resulting in recruitment of PDK1 to the plasma membrane where it phosphorylates AKT at Thr308 in the activation loop.
The aim of this cell-based mode of action assay is to identify compounds that inhibit PDK activity or recruitment of PDK1 to membrane by inhibiting PI3K activity. Phosphorylation of phospho-Akt (T308) in BT474c cells following treatment with compounds for 2 h is a direct measure of PDK1 and indirect measure of PI3K activity.
BT474 cells (human breast ductal carcinoma, ATCC HTB-20) were seeded into black 384 well plates (Costar, #3712) at a density of 5600 cells/well in DMEM containing 10% FBS and 1% glutamine and allowed to adhere overnight.
The following morning compounds in 100% DMSO were added to assay plates by acoustic dispensing. After a 2 h incubation at 37° C. and 5% CO2, the medium was aspirated and the cells were lysed with a buffer containing 25 mM Tris, 3 mM EDTA, 3 mM EGTA, 50 mM sodium fluoride, 2 mM Sodium orthovanadate, 0.27M sucrose, 10 mM β-glycerophosphate, 5 mM sodium pyrophosphate, 0.5% Triton X-100 and complete protease inhibitor cocktail tablets (Roche #04 693 116 001, used 1 tab per 50 ml lysis buffer).
After 20 minutes, the cell lysates were transferred into ELISA plates (Greiner #781077) which had been pre-coated with an anti total-AKT antibody in PBS buffer and non-specific binding was blocked with 1% BSA in PBS containing 0.05% Tween 20. Plates were incubated over night at 4° C. The next day the plates were washed with PBS buffer containing 0.05% Tween 20 and further incubated with a mouse monoclonal anti-phospho AKT T308 for 2 h. Plates were washed again as above before addition of a horse anti-mouse-HRP conjugated secondary antibody. Following a 2 h incubation at r.t., plates were washed and QuantaBlu substrate working solution (Thermo Scientific #15169, prepared according to provider's instructions) was added to each well. The developed fluorescent product was stopped after 60 minutes by addition of Stop solution to the wells. Plates were read using a Tecan Safire plate reader using 325 nm excitation and 420 nm emission wavelengths respectively. Except where specified, reagents contained in the Path Scan Phospho AKT (Thr308) sandwich ELISA kit from Cell Signalling (#7144) were used in this ELISA assay.

mTOR = target: T2, mTOR (Homo sapiens, UniProt P42345); test: Assay d): mTOR cellular potency (phospho-AKT Ser473 in MDA-MB-468 cells)
T2 construct: phosphorylation of the Akt protein at Ser473 (AKT lies downstream of PI3Kα in the signal transduction pathway) in the MDA-MB-468 cells; endogenous in cells; host or cells: MDA-MB-468 cells (ATCC HTB 132)
Description: This assay was used to measure mTOR inhibition in cells. The aim of the phospho-AKT cell based mechanism of action assay using the Acumen Explorer is to identify inhibitors of either PI3Kα or mTOR-Rictor (Rapamycin insensitive companion of mTOR). This is measured by any decrease in the phosphorylation of the Akt protein at Ser473 (AKT lies downstream of PI3Kα in the signal transduction pathway) in the MDA-MB-468 cells following treatment with compound.
MDA-MB-468 cells (human breast adenocarcinoma #ATCC HTB 132) were seeded at 1500 cells/well in 40 μl of DMEM containing 10% FBS and 1% glutamine into Greiner 384 well black flat-bottomed plates. Cell plates were incubated for 18 h in a 37° C. incubator before dosing with compounds of Formula (I) in 100% DMSO using acoustic dispensing. Compounds were dosed in a 12 point concentration range into a randomised plate map. Control wells were generated either by dosing of 100% DMSO (max signal) or addition of a reference compound (a PI3K-βinhibitor) that completely eliminated the pAKT signal (min control). Plates were incubated at 37° C. for 2 h; cells were then fixed by the addition of 10 μl of a 3.7% formaldehyde solution. After 30 minutes the plates were washed with PBS using a Tecan PW384 plate washer. Wells were blocked and cells permeabilised with the addition of 40 μl of PBS containing 0.5% Tween20 and 1% Marvel™ (dried milk powder) and incubated for 60 minutes at r.t. The plates were washed with PBS containing 0.5% (v/v) Tween20 and 20 μl rabbit anti-phospho AKT Ser473 (Cell Signalling Technologies, #3787) in same PBS-Tween+1% Marvel™ was added and incubated overnight at 4° C.
Plates were washed 3 times with PBS+0.05% Tween 20 using a Tecan PW384. 20 μl of secondary antibody Alexa Fluor 488 anti-Rabbit (Molecular Probes, #A11008) diluted in PBS+0.05% Tween20 containing 1% Marvel™ was added to each well and incubated for 1 h at r.t. Plates were washed three times as before then 20 μl PBS added to each well and plates sealed with a black plate sealer.
The plates were read on an Acumen plate reader as soon as possible, measuring green fluorescence after excitation with 488 nm laser. Using this system IC50 values were generated and quality of plates was determined by control wells. Reference compounds were run each time to monitor assay performance.

ATM kinase = target: T3, ATM kinase (Homo sapiens, UniProt Q13315); test: Assay a): ATM cellular potency (pATM Ser1981 in irradiated HT29 cells)
T3 construct: endogenous in cells; host or cells: HT29 cells (ECACC #85061109)
Method in brief: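 HT29 cells pretreated with compound for 1 h at 37° C, X-ray irradiated (~600 cGy), then incubated 1 h more. Cells fixed, Triton-permeabilised and immunostained for pATM Ser1981; fluorescence quantified by ArrayScan high-content imaging.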

[1] = HT29 cells, 4NQO, pChk1 Ser345; Table 3 comparative data; read-out: Assay b) ATR Cell IC50
[2] = MDA-MB-468 cells, phospho-AKT Ser473, 2 h; Table 3 comparative data; read-out: Assay d) mTOR Cell IC50
[3] = HT29 cells, X-ray irradiation, pATM Ser1981; Table 3 comparative data; read-out: Assay a) ATM Cell IC50
[4] = HT29 cells, X-ray irradiation, pATM Ser1981; Table 2; read-out: Assay a) ATM Cell IC50
[5] = HT29 cells, 4NQO, pChk1 Ser345; Table 2; read-out: Assay b) ATR Cell IC50
[6] = MDA-MB-468 cells, phospho-AKT Ser473, 2 h; Table 2; read-out: Assay d) mTOR Cell IC50

T1 sequence (Q13535 whole entry): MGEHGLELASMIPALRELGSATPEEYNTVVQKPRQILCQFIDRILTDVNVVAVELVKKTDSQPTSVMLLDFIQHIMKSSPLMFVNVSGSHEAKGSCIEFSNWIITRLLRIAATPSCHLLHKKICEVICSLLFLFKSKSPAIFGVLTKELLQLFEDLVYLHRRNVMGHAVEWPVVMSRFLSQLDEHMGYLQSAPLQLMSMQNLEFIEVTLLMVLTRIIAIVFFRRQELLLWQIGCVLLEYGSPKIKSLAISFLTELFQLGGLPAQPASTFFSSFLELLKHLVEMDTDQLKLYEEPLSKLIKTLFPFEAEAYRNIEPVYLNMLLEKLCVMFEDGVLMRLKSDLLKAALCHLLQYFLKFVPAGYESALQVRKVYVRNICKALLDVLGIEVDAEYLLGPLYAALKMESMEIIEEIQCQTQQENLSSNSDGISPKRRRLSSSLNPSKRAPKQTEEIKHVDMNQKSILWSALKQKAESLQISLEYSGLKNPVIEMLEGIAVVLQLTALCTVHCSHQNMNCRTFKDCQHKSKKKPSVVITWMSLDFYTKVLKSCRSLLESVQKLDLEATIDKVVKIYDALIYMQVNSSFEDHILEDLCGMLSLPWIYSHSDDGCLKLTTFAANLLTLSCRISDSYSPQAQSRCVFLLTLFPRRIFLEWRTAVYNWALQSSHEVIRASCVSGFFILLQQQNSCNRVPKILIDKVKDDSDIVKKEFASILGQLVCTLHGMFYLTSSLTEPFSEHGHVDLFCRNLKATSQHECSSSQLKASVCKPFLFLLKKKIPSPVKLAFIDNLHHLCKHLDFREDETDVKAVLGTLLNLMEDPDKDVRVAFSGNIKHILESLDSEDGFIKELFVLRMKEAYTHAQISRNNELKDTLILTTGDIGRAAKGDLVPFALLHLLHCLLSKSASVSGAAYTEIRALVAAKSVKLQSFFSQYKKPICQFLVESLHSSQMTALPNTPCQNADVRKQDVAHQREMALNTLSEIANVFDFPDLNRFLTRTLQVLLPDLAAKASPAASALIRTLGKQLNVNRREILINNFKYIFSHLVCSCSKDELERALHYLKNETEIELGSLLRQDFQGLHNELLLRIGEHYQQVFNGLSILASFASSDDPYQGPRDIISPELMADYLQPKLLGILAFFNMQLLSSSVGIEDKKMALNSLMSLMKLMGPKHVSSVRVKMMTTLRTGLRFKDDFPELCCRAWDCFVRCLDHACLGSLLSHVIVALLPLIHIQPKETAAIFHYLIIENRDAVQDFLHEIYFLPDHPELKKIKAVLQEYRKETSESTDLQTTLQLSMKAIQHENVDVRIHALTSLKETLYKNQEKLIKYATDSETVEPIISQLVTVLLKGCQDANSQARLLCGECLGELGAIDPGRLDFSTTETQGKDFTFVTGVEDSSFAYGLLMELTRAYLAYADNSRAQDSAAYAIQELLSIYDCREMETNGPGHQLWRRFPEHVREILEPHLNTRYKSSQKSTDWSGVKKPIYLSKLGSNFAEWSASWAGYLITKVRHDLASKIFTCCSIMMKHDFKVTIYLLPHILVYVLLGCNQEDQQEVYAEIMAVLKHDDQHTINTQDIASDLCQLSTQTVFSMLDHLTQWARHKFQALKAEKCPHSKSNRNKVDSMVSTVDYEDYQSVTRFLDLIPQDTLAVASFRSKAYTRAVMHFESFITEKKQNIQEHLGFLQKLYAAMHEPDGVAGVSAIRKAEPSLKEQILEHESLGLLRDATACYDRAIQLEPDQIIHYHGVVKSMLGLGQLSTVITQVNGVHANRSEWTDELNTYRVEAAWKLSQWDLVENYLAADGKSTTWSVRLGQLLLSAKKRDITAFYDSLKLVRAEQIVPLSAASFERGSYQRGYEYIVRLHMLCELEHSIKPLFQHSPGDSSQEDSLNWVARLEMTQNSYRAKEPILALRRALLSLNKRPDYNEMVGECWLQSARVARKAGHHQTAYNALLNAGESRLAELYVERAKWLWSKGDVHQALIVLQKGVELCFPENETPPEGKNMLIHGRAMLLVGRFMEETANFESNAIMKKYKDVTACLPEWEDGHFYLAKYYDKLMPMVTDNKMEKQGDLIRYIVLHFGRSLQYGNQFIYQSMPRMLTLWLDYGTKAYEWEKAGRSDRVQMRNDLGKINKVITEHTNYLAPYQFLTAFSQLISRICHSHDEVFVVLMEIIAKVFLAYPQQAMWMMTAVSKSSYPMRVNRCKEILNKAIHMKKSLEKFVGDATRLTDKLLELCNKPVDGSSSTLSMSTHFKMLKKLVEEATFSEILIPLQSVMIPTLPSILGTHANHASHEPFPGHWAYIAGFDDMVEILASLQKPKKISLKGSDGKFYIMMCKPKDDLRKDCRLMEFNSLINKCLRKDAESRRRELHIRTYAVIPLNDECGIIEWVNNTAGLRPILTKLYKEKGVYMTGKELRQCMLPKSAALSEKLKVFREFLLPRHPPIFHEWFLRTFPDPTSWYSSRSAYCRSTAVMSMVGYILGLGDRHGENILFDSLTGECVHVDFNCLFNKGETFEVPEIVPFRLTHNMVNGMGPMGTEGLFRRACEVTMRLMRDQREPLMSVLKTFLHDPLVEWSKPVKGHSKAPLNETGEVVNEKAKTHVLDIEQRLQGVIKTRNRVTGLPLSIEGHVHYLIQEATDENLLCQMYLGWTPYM
T1 sequence (Q8WXE1 whole entry partner): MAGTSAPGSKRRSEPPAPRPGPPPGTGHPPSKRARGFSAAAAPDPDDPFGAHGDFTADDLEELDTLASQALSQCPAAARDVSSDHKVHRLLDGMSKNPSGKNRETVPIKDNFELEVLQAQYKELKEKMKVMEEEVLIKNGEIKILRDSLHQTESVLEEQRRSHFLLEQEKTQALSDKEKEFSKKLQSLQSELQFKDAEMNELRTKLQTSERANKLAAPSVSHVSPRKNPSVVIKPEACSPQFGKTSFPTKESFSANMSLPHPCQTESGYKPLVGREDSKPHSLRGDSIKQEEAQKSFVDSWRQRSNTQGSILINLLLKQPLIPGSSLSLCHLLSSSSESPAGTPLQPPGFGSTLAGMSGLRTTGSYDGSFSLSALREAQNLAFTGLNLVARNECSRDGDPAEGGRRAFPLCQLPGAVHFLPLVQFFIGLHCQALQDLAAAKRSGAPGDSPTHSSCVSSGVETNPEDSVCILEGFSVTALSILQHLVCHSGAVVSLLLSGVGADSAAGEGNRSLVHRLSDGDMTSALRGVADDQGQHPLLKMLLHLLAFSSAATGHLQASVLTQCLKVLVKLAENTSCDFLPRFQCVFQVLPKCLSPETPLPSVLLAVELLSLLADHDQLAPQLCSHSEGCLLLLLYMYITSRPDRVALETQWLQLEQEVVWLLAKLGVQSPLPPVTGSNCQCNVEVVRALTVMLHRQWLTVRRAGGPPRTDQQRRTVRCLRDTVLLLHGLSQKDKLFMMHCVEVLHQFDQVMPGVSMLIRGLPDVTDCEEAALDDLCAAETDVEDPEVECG

Question: How did the IC50 (ATR kinase; [1]) turn out when COc1ccc(-c2ccc3ncc4c(c3c2)n(C2CCNCC2)c(=O)n4C)cn1 [CN102372711A Compound 1, reference compound] was run?
Answer: Its IC50 is 281 nM.

Question: And the “Assay c) PI3Ka Cell IC50” value (PI3K-α)?
Answer: Its value is 188 nM.

Question: And the IC50 (mTOR; [2])?
Answer: The IC50 was 237 nM.

Question: COc1ccc(-c2ccc3ncc4c(c3c2)n(C2CCN(C(C)=O)CC2)c(=O)n4C)cn1 [CN102372711A Compound 5, reference compound] was tested. Which IC50 (ATM kinase; [3]) did it give?
Answer: Its IC50 is 26.5 nM.

Question: What about the IC50 (ATR kinase; [1]) of the same compound?
Answer: Its IC50 is 64.4 nM.

Question: And the “Assay c) PI3Ka Cell IC50” value (PI3K-α)?
Answer: Its value is 153 nM.

Question: And the IC50 (mTOR; [2])?
Answer: The IC50 was 113 nM.

Question: Which results are given for Cn1c(=O)n(C2CNC2)c2c3cc(-c4cnc5[nH]ccc5c4)ccc3ncc21 [CN102399218A Compound 61, reference compound]?
Answer: IC50 (ATM kinase; [3]): 3460 nM; IC50 (ATR kinase; [1]): 1480 nM; Assay c) PI3Ka Cell IC50 (PI3K-α): 1730 nM; IC50 (mTOR; [2]): 177 nM

Question: With Cn1c(=O)n(C2CC2)c2c3cc(-c4cnc5[nH]ccc5c4)ccc3ncc21 [CN102399218A Compound 62, reference compound] as the compound, how does the IC50 (ATM kinase; [3]) read?
Answer: The IC50 was 80 nM.

Question: What about the IC50 (ATR kinase; [1]) of the same compound?
Answer: Its IC50 is 56.3 nM.

Question: And the “Assay c) PI3Ka Cell IC50” value (PI3K-α)?
Answer: Its value is 149 nM.

Question: What about the IC50 (mTOR; [2]) of the same compound?
Answer: The IC50 was 15.5 nM.

Question: How did the IC50 (ATM kinase; [3]) turn out when Cn1c(=O)n(C2CC2)c2c3cc(-c4cnc(N)nc4)ccc3ncc21 [CN102399218A Compound 64, reference compound] was run?
Answer: Its IC50 is 216 nM.

Question: What about the IC50 (ATR kinase; [1]) of the same compound?
Answer: The IC50 was 162 nM.

Question: What about the “Assay c) PI3Ka Cell IC50” value (PI3K-α) of the same compound?
Answer: The value was 247 nM.

Question: And the IC50 (mTOR; [2])?
Answer: The IC50 was 287 nM.

Question: Which results are given for Cn1c(=O)n(C2CCOCC2)c2c3cc(-c4cnc(N)nc4)ccc3ncc21 [CN102399218A Compound 94, reference compound]?
Answer: IC50 (ATM kinase; [3]): 494 nM; IC50 (ATR kinase; [1]): 12.9 nM; Assay c) PI3Ka Cell IC50 (PI3K-α): 80.4 nM; IC50 (mTOR; [2]): 41.4 nM

Question: For COc1ncc(-c2ccc3ncc4c(c3c2)n(C2CC2)c(=O)n4C)cc1NS(=O)(=O)C1CC1 [CN102399218A Compound 114, reference compound], which IC50 (ATM kinase; [3]) is on record?
Answer: The IC50 was 74.1 nM.

Question: What about the IC50 (ATR kinase; [1]) of the same compound?
Answer: Its IC50 is 68.6 nM.

Question: And the “Assay c) PI3Ka Cell IC50” value (PI3K-α)?
Answer: Its value is 13.1 nM.

Question: And the IC50 (mTOR; [2])?
Answer: The IC50 was 46.9 nM.

Question: Which IC50 (ATM kinase; [4]) does the source give for CC(C)n1c(=O)n(C)c2cnc3ccc(-c4ccc(OCCN(C)C)cc4)cc3c21 [Example 5, 8-[4-[2-(Dimethylamino)ethoxy]phenyl]-1-isopropyl-3-methyl-imidazo[4,5-c]quinolin-2-one] here?
Answer: Its IC50 is 14.8 nM.

Question: And the IC50 (ATR kinase; [5])?
Answer: Its IC50 is > 30000 nM.

Question: What about the IC50 (PI3K-α) of the same compound?
Answer: The IC50 was > 26900 nM.

Question: How did the IC50 (ATR kinase; [5]) turn out when CN(C)CCCOc1ccc(-c2ccc3ncc4c(c3c2)n([C@@H]2CCCOC2)c(=O)n4C)cc1 [Example 8, 8-[4-[3-(dimethylamino)propoxy]phenyl]-3-methyl-1-[(3R)-tetrahydropyran-3-yl]imidazo[4,5-c]quinolin-2-one] was run?
Answer: Its IC50 is > 30000 nM.

Question: What about the IC50 (PI3K-α) of the same compound?
Answer: The IC50 was 311 nM.

Question: What about the IC50 (mTOR; [6]) of the same compound?
Answer: The IC50 was 1420 nM.

Question: Which results are given for CN(C)CCCOc1ccc(-c2ccc3ncc4c(c3c2)n([C@H]2CCCOC2)c(=O)n4C)cc1 [Example 9, 8-[4-[3-(dimethylamino)propoxy]phenyl]-3-methyl-1-[(3S)-tetrahydropyran-3-yl]imidazo[4,5-c]quinolin-2-one]?
Answer: IC50 (ATR kinase; [5]): > 30000 nM; IC50 (PI3K-α): 15200 nM

Question: For CO[C@H]1C[C@@H](n2c(=O)n(C)c3cnc4cc(F)c(-c5ccc(OCCCN(C)C)cc5)cc4c32)C1 [Example 12, 8-[4-[3-(dimethylamino)propoxy]phenyl]-7-fluoro-1-(cis3-methoxycyclobutyl)-3-methyl-imidazo[4,5-c]quinolin-2-one], which IC50 (ATM kinase; [4]) is on record?
Answer: The IC50 was 1.88 nM.

Question: And the IC50 (ATR kinase; [5])?
Answer: Its IC50 is > 30000 nM.

Question: And the IC50 (PI3K-α)?
Answer: The IC50 was 20400 nM.

Question: What about the IC50 (mTOR; [6]) of the same compound?
Answer: The IC50 was 5560 nM.

Question: Which IC50 (ATM kinase; [4]) does the source give for CN(C)CCOc1ccc(-c2ccc3ncc4c(c3c2)n([C@H]2CCCOC2)c(=O)n4C)cc1 [Example 47, 8-[4-[2-(Dimethylamino)ethoxy]phenyl]-3-methyl-1-[(3S)-tetrahydropyran-3-yl]imidazo[4,5-c]quinolin-2-one] here?
Answer: The IC50 was 14.4 nM.

Question: And the IC50 (ATR kinase; [5])?
Answer: Its IC50 is > 30000 nM.

Question: What about the IC50 (PI3K-α) of the same compound?
Answer: Its IC50 is > 30000 nM.

Question: What about the IC50 (mTOR; [6]) of the same compound?
Answer: The IC50 was 5530 nM.
